Experiments:
[1] = tested on: MV4-11, EOL-1, and KG-1 AML cells; test: Flow cytometry for apoptosis (Annexin V / PI); type: cell-based; conditions: all cell lines, FIG. 10A
Description: Cells were treated as described above. To determine apoptosis, cells were stained with FITC-Annexin V and propidium iodide (PI; BD Pharmingen, catalog #556570) and then analyzed on BD Accuri C6 flow cytometer. To measure DNA synthesis and phases of cell cycle, treated cells were stained with 5-ethynyl-2′-deoxyuridine (Edu) Alexa Fluor 488 (Thermo Fisher Scientific, catalog #C10425) and PI (PI/RNase A staining solution, BD Biosciences, catalog #550825). The dead cells were excluded from analysis by using Live/Dead Fixable Far Red Dead Cell Stain Kit (Thermo Fisher Scientific, catalog #L34973). Staining was performed as per the manufacturers' instructions.
To investigate the mechanism by which COMPOUND I causes cell death, MV4-11, EOL-1, and KG-1 AML cells were treated with or without COMPOUND I and subjected to apoptotic marker detection by flowcytometry and Western blotting. Cells were stained with PI and Annexin V to distinguish between live (Annexin V and PI negative), early apoptotic (Annexin V positive and PI negative), late apoptotic (Annexin V and PI positive), and dead (Annexin V negative and PI positive) cells. […] COMPOUND I induced accumulation of c-PARP1 in a concentration- and time dependent manner that paralleled apoptosis induction as measured by Annexin V/PI staining (FIGS. 10B-C; FIG. 17B). […]

[2] = tested on: H3K27ac at the MYC promoter in MV4-11 cells; test: ChIP-qPCR for H3K27ac; type: cell-based; conditions: 500 nmol/L
Description: MV4-11 cells were treated with vehicle DMSO or 500 nmol/L COMPOUND I for 2, 6, or 24 hours and then crosslinked with 1% formaldehyde. Chromatin was extracted by sonication and then incubated with H3K27ac (Active Motif #39133) antibody overnight. The antibody:DNA complexes were isolated with Protein G beads (Invitrogen Dynabeads catalog #10004D) and analyzed by qPCR with primers specific to the MYC promoter (Table 7). H3K27ac enrichment was calculated as fold over input DNA control.
(§1) Regulation of MYC expression is a complex process that involves MYC transcription, mRNA stability, and protein turnover. ChIP-qPCR analysis for H3K27ac, a well-established marker of active chromatin, was performed to assess transcriptional competency of the MYC gene promoter after treatment with COMPOUND I (FIG. 19D). […] To determine whether COMPOUND I affected MYC mRNA stability, an RNA decay assay was performed on EOL-1 cells.

[3] = tested on: BIK, BAD, MCL-1 in Raji cells; test: Western blot of proteins involved in apoptosis; type: cell-based, human; conditions: 0.5 μM, 24 h, n=3
[4] = tested on: MYC mRNA stability in EOL-1 cells; test: RNA decay assay; type: cell-based; conditions: 500 nmol/L 3 hours, then 1 μmol/L actinomycin D
Description: Cells were treated for 3 hours with vehicle DMSO or 500 nmol/L COMPOUND I followed by 1 μmol/L actinomycin D. Aliquots of cells were taken before and then every 10 minutes after actinomycin D addition for RNA extraction and cDNA synthesis as for qRT-PCR analysis. Levels of MYC and 28s rRNA were analyzed using specific primers (Table 8) and MYC RNA expression was normalized to 28 s rRNA [2^(28 s Ct value−MYC Ct value)].
as §1

[5] = tested on: BIK, BAD, MCL-1 in Raji/COMPOUND IR cells; test: Western blot of proteins involved in apoptosis; type: cell-based, human
Excerpt: In order to delineate which effects of COMPOUND I are most closely linked to sensitivity for this drug, a subline of the Raji Burkitt's lymphoma cell line that had acquired resistance (Raji/COMPOUND IR) as a result of repeated exposure to progressively higher concentrations of COMPOUND I over a period of 6 months was developed. Resistance evolved slowly and progressively without an abrupt change at any point during the selection process. […] This is in the same range as has been reported for freshly isolated AML blasts and CLL cells. Zhang et al., “Inhibition of c-Myc by ATPO-COMPOUND I as an Innovative Therapeutic Approach to Induce Cell Cycle Arrest and Apoptosis in Acute Myeloid Leukemia [abstract],” Blood 2016; 128:1716; Kurtz et al., “Broad Activity of COMPOUND I in AML and other Hematologic Malignancies Correlates with KFL4 Expression Level [abstract],” Blood 2015; 126:1358, both of which are hereby incorporated by reference. […] The level of resistance remained stable for at least 3 months during culture in drug-free media (FIG. 4A). Raji/COMPOUND IR cells grew slightly faster than the parental cells but the difference was not statistically significant.

[6] = tested on: MV4-11, EOL1, or KG-1 cells; test: Detection of reactive oxygen species (molecular sensors, GSH changes); type: cell-based
Excerpt: In addition, cells harboring BRCA1/2 mutations are hypersensitive to COMPOUND I, further supporting a role for DNA damage in COMPOUND I mechanism of action. COMPOUND I consistently produced upregulation of CDKN1A, which mediates arrest in G0-G1. In addition, CDKN1A can be induced after DNA double-strand breaks to block cell-cycle progression to allow for sufficient time to repair DNA. In combination with CDKN1A induction, COMPOUND I increased KLF4 gene expression in many AML cell lines, which is known to regulate CDKN1A as part of the G1 cell-cycle checkpoint. […] The role of KLF4 in COMPOUND I mechanism of action is of interest for future studies.

[7] = tested on: phospho-ATM, phospho-γH2AX, PARP cleavage in Raji/COMPOUND IR cells; test: Western blot of phospho-ATM, γH2AX and cleaved PARP; type: cell-based, human; conditions: 0.5 μM, 24 h
Description: Only when the Raji/COMPOUND IR cells were treated with at least 3 times as much COMPOUND I did the intracellular content of Fe(COMPOUND I)3 finally reach a level similar to that in the sensitive cells (FIG. 4D).

SMILES: Cc1[nH]c2ccc(F)cc2c1-c1nc2c3cccnc3c3ncccc3c2[nH]1 [COMPOUND I, 2-(5-fluoro-2-methyl-1H-indol-3-yl)-1H-imidazo[4,5-f][1,10]phenanthroline]
- apoptotic cells at 24 hours [1]: concentration-dependent increase in apoptotic cells
- earliest time a decrease in H3K27ac at the MYC promoter was observed [2]: 2 h
- BAD increase vs DMSO control [3]: 2.1±0.25 fold
- BIK increase vs DMSO control [3]: 47.5±16.8%
- MCL-1 decrease vs DMSO control [3]: 38.1±2.3%
- MYC mRNA levels in pretreated cells versus vehicle [4]: clear decrease in MYC mRNA levels
- changes in BIK, BAD, MCL-1 ([5]; 0.5 μM, 24 h): None of these changes were detected
- induction of apoptosis ([5]; concentration that induced apoptosis in Raji sensitive cells): failed to trigger apoptosis
- generation of reactive oxygen species [6]: no such species have been detected
- phospho-ATM, phospho-γH2AX, PARP cleavage [7]: no increase in phospho-ATM or phospho-γH2AX, and no detectable PARP cleavage
